Laboratory results reported in patent publication US20050009151A1, “Methods for the stereospecific and enantiomeric enrichment of beta-amino acids” (Pharmacia Corporation, priority 2003, published 2005).

Experiments:
[1] = system: gamma aminobutyrate transaminase; details: J. Biochem 81, 1375-1381, 1977; cited from earlier work
[2] = system: Alcaligenes eutrophus L-β-aminotransferase; experiment: Amino donor screen, production of β-phenylalanine from 3-keto-3-phenylpropionic acid; assay type: biochemical; details: 200 mM amino donor, pyruvate decarboxylase, 24 hours
Description: The assays contained: 0.1-0.3 mg/ml protein, 10 mg/ml keto acceptor, 200 mM amino donor, 0.1 mM pyridoxal phosphate, and 100 mM potassium phosphate, at pH 8.0. 0.1 units of pyruvate decarboxylase was included to prevent the reversible reaction from reaching equilibrium. The reactions were run at 37° C. with gentle stirring for 24 hours. At 24 hours reaction time, 0.1 ml samples were withdrawn, acidified with addition of 0.1 ml 0.1N HCl, and centrifuged. The supernatant solution was collected into HPLC sample vials. Conversion of amino acid to the corresponding ketone was quantified using reverse phase HPLC. Amino donors screened were (L)-alanine, (D)-alanine, and β-alanine.

[3] = system: α-alanine aminotransferase; details: J. Biochem 81, 1375-1381, 1977; cited from earlier work
[4] = system: β-aminotransferase from Alcaligenes eutrophus; experiment: Synthesis of β-amino acid from β-keto acid with cell lysate from Alcaligenes eutrophus; assay type: biochemical; details: approximately 45 mM substrate, approximately 84 mM alanine, 47 hours
Description: A buffer consisting of 0.3M Tricine, 15 mM MgSO4, enough pyridoxal phosphate to impart a pale yellow color and 0.3M sodium glutamate (for deamination reactions) or 0.3 M 2-ketoglutarate monopotassium salt (for synthesis reactions) was prepared.
[…] Reactions were typically run at 1 ml scale with gentle shaking at 26° C.
10 ul of 2N HCl was added to a plastic screw capped vial and 90ul of sample was then added. The pH of the mixture confirmed to be below 4 and the mixture was centrifuged in a microcentrifuge at maximum speed for about 2 minutes to remove precipitated materials.
Samples were derivatized using Marfey's reagent, N•-(2,4-dinitro-5-fluorophenyl)-L-alaninamide. A stock solution of 10 mg/mL in acetone of this reagent was prepared. Either 20 or 40 ul of bioconversion sample was added to 20 ul 1.3 M KHCO3. To this was added 80 ul of the stock reagent solution, the vial sealed tightly, and heated at 70° C. for 10 minutes. As needed, after cooling to room temperature, the heated samples were centrifuged to remove solids. The supernatants were analyzed using an Eclipse XDB-C8 column, 4.6×150 mm, eluting with methanol gradient in water, from 50% methanol to 100% methanol. Both solvents were acidified with 0.1% trifluoroacetic acid. […]

Row | SMILES | activity on substrate [1] | utilized by the enzyme as an amino donor in the production of β-phenylalanine [2] | activity on substrate [3] | 2-fluoro-beta-phenylalanine formed, using beta-phenylalanine as standard [4]
1 | NCCC(=O)O [β-alanine] | 3 | Only (L)-alanine was utilized by the enzyme | 100 | 
2 | C[C@@H](N)C(=O)O [(D)-alanine] |  | Only (L)-alanine was utilized by the enzyme |  | 
3 | O=C(O)CC(=O)c1ccccc1F [3-(2-Fluorobenzene)beta-oxopropanoic acid] |  |  |  | approximately 0.1 mg/mL
4 | C[C@H](N)C(=O)O [(L)-alanine] |  | utilized by the enzyme as an amino donor |  | 
5 | NCCCC(=O)O [gamma aminobutyrate] | 100 |  | 43 | 
